The supplement of paper PMC10307832

Key:
Test in all cases: relative viability (nuclei count vs DMSO), 5 days (fraction); higher = more cells survive
201T = tested on: 201T
In short: (§1)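 The day after seeding in 1536-well plates, lung cancer cell lines were treated by pin tool with a single drug, or with a fixed anchor-drug dose together with five library-drug doses (not always all listed) in √10 steps. After 5 days, a combined fix-and-stain solution (final 0.05% Triton X-100, 1% formaldehyde, 1 ug/ml Hoechst) was added. Nuclei counted on 4× images gave relative viability as treated counts over vehicle counts, reported as the median of duplicate plates.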

BEN = tested on: BEN
In short: as §1

EMC-BAC-2 = tested on: EMC-BAC-2
In short: as §1

HARA = tested on: HARA
In short: as §1

HCC-44 = tested on: HCC-44
In short: as §1

LCLC-103H = tested on: LCLC-103H
In short: as §1

LOU-NH91 = tested on: LOU-NH91
In short: as §1

NCI-H1395 = tested on: NCI-H1395
In short: as §1

NCI-H1666 = tested on: NCI-H1666
In short: as §1

NCI-H1993 = tested on: NCI-H1993
In short: as §1

NCI-H2009 = tested on: NCI-H2009
In short: as §1

NCI-H2023 = tested on: NCI-H2023
In short: as §1

NCI-H2087 = tested on: NCI-H2087
In short: as §1

NCI-H2126 = tested on: NCI-H2126
In short: as §1

NCI-H2347 = tested on: NCI-H2347
In short: as §1

NCI-H23 = tested on: NCI-H23
In short: as §1

NCI-H3122 = tested on: NCI-H3122
In short: as §1

NCI-H441 = tested on: NCI-H441
In short: as §1

NCI-H522 = tested on: NCI-H522
In short: as §1

NCI-H596 = tested on: NCI-H596
In short: as §1

NCI-H647 = tested on: NCI-H647
In short: as §1

NCI-H650 = tested on: NCI-H650
In short: as §1

NCI-H727 = tested on: NCI-H727
In short: as §1

NCI-H838 = tested on: NCI-H838
In short: as §1

Compound: Clc1ccc(Nc2nnc(Cc3ccncc3)c3ccccc23)cc1 [Vatalanib] + Nc1ncn([C@H]2C[C@H](O)[C@@H](CO)O2)c(=O)n1 [Decitabine] (partner 2 µM)
- relative viability (201T; first compound 0.04 µM): 0.832
- relative viability (201T; first compound 0.1265 µM): 0.85
- relative viability (201T; first compound 0.4 µM): 0.881
- relative viability (201T; first compound 1.265 µM): 0.867
- relative viability (201T; first compound 4 µM): 0.861
- relative viability (BEN; first compound 0.04 µM): 0.644
- relative viability (BEN; first compound 0.1265 µM): 0.727
- relative viability (BEN; first compound 0.4 µM): 0.504
- relative viability (BEN; first compound 1.265 µM): 0.739
- relative viability (BEN; first compound 4 µM): 0.774
- relative viability (EMC-BAC-2; first compound 0.04 µM): 0.984
- relative viability (EMC-BAC-2; first compound 0.1265 µM): 0.952
- relative viability (EMC-BAC-2; first compound 0.4 µM): 0.983
- relative viability (EMC-BAC-2; first compound 4 µM): 0.956
- relative viability (HARA; first compound 0.04 µM): 0.623
- relative viability (HARA; first compound 0.1265 µM): 0.446
- relative viability (HARA; first compound 0.4 µM): 0.463
- relative viability (HARA; first compound 1.265 µM): 0.526
- relative viability (HARA; first compound 4 µM): 0.521
- relative viability (HCC-44; first compound 0.04 µM): 0.961
- relative viability (HCC-44; first compound 0.1265 µM): 0.944
- relative viability (HCC-44; first compound 0.4 µM): 0.976
- relative viability (HCC-44; first compound 1.265 µM): 0.906
- relative viability (HCC-44; first compound 4 µM): 0.961
- relative viability (LCLC-103H; first compound 0.04 µM): 0.715
- relative viability (LCLC-103H; first compound 0.1265 µM): 0.722
- relative viability (LCLC-103H; first compound 0.4 µM): 0.759
- relative viability (LCLC-103H; first compound 1.265 µM): 0.71
- relative viability (LCLC-103H; first compound 4 µM): 0.725
- relative viability (LOU-NH91; first compound 0.04 µM): 0.766
- relative viability (LOU-NH91; first compound 0.1265 µM): 0.81
- relative viability (LOU-NH91; first compound 0.4 µM): 0.766
- relative viability (LOU-NH91; first compound 1.265 µM): 0.824
- relative viability (LOU-NH91; first compound 4 µM): 0.823
- relative viability (NCI-H1395; first compound 0.04 µM): 0.718
- relative viability (NCI-H1395; first compound 0.1265 µM): 0.702
- relative viability (NCI-H1395; first compound 0.4 µM): 0.722
- relative viability (NCI-H1395; first compound 4 µM): 0.665
- relative viability (NCI-H1666; first compound 0.04 µM): 0.649
- relative viability (NCI-H1666; first compound 0.1265 µM): 0.755
- relative viability (NCI-H1666; first compound 0.4 µM): 0.593
- relative viability (NCI-H1666; first compound 1.265 µM): 0.672
- relative viability (NCI-H1666; first compound 4 µM): 0.785
- relative viability (NCI-H1993; first compound 0.04 µM): 0.57
- relative viability (NCI-H1993; first compound 0.1265 µM): 0.607
- relative viability (NCI-H1993; first compound 0.4 µM): 0.541
- relative viability (NCI-H1993; first compound 1.265 µM): 0.488
- relative viability (NCI-H1993; first compound 4 µM): 0.495
- relative viability (NCI-H2009; first compound 0.04 µM): 0.378
- relative viability (NCI-H2009; first compound 0.1265 µM): 0.334
- relative viability (NCI-H2009; first compound 0.4 µM): 0.343
- relative viability (NCI-H2009; first compound 1.265 µM): 0.404
- relative viability (NCI-H2009; first compound 4 µM): 0.396
- relative viability (NCI-H2023; first compound 0.04 µM): 0.22
- relative viability (NCI-H2023; first compound 0.1265 µM): 0.205
- relative viability (NCI-H2023; first compound 0.4 µM): 0.231
- relative viability (NCI-H2023; first compound 1.265 µM): 0.221
- relative viability (NCI-H2023; first compound 4 µM): 0.219
- relative viability (NCI-H2087; first compound 0.04 µM): 0.286
- relative viability (NCI-H2087; first compound 0.1265 µM): 0.292
- relative viability (NCI-H2087; first compound 0.4 µM): 0.273
- relative viability (NCI-H2087; first compound 1.265 µM): 0.298
- relative viability (NCI-H2087; first compound 4 µM): 0.275
- relative viability (NCI-H2126; first compound 0.04 µM): 0.514
- relative viability (NCI-H2126; first compound 0.1265 µM): 0.534
- relative viability (NCI-H2126; first compound 0.4 µM): 0.594
- relative viability (NCI-H2126; first compound 1.265 µM): 0.565
- relative viability (NCI-H2126; first compound 4 µM): 0.634
- relative viability (NCI-H2347; first compound 0.04 µM): 0.616
- relative viability (NCI-H2347; first compound 0.1265 µM): 0.62
- relative viability (NCI-H2347; first compound 0.4 µM): 0.624
- relative viability (NCI-H2347; first compound 1.265 µM): 0.602
- relative viability (NCI-H2347; first compound 4 µM): 0.64
- relative viability (NCI-H23; first compound 0.04 µM): 0.355
- relative viability (NCI-H23; first compound 0.1265 µM): 0.324
- relative viability (NCI-H23; first compound 0.4 µM): 0.314
- relative viability (NCI-H23; first compound 1.265 µM): 0.291
- relative viability (NCI-H23; first compound 4 µM): 0.348
- relative viability (NCI-H3122; first compound 0.04 µM): 0.411
- relative viability (NCI-H3122; first compound 0.1265 µM): 0.432
- relative viability (NCI-H3122; first compound 0.4 µM): 0.406
- relative viability (NCI-H3122; first compound 1.265 µM): 0.438
- relative viability (NCI-H3122; first compound 4 µM): 0.457
- relative viability (NCI-H441; first compound 0.04 µM): 0.237
- relative viability (NCI-H441; first compound 0.1265 µM): 0.212
- relative viability (NCI-H441; first compound 0.4 µM): 0.206
- relative viability (NCI-H441; first compound 1.265 µM): 0.228
- relative viability (NCI-H441; first compound 4 µM): 0.242
- relative viability (NCI-H522; first compound 0.04 µM): 0.711
- relative viability (NCI-H522; first compound 0.1265 µM): 0.685
- relative viability (NCI-H522; first compound 0.4 µM): 0.698
- relative viability (NCI-H522; first compound 1.265 µM): 0.696
- relative viability (NCI-H522; first compound 4 µM): 0.596
- relative viability (NCI-H596; first compound 0.04 µM): 0.921
- relative viability (NCI-H596; first compound 0.1265 µM): 1.14
- relative viability (NCI-H596; first compound 0.4 µM): 1.22
- relative viability (NCI-H596; first compound 1.265 µM): 1.01
- relative viability (NCI-H596; first compound 4 µM): 1.02
- relative viability (NCI-H647; first compound 0.04 µM): 0.4
- relative viability (NCI-H647; first compound 0.1265 µM): 0.375
- relative viability (NCI-H647; first compound 0.4 µM): 0.562
- relative viability (NCI-H647; first compound 1.265 µM): 0.36
- relative viability (NCI-H647; first compound 4 µM): 0.375
- relative viability (NCI-H650; first compound 0.04 µM): 0.292
- relative viability (NCI-H650; first compound 0.1265 µM): 0.337
- relative viability (NCI-H650; first compound 0.4 µM): 0.306
- relative viability (NCI-H650; first compound 1.265 µM): 0.327
- relative viability (NCI-H650; first compound 4 µM): 0.334
- relative viability (NCI-H727; first compound 0.1265 µM): 0.801
- relative viability (NCI-H727; first compound 0.4 µM): 0.539
- relative viability (NCI-H727; first compound 1.265 µM): 0.821
- relative viability (NCI-H727; first compound 4 µM): 0.973
- relative viability (NCI-H838; first compound 0.04 µM): 0.435
- relative viability (NCI-H838; first compound 0.1265 µM): 0.467
- relative viability (NCI-H838; first compound 0.4 µM): 0.441
- relative viability (NCI-H838; first compound 1.265 µM): 0.483
- relative viability (NCI-H838; first compound 4 µM): 0.448
